Measured values taken from US11034725B2, “Compositions and methods for treating cardiovascular disease” (Genentech, Inc., priority 2016, dated 2021).
Numbered stars: 1 amine (or outer) side, 2 acyl side, 3 side chain; on linkers, the order of the positions; unused ones are H or OH. Square brackets hold non-standard residues; d marks the D form. Peptide text beside a SMILES is read from it. * marks the point of attachment. Propanoyl(3-indol-3-yl) = O=C(CCc1c[nH]c2ccccc12)*; Propanoyl(3-(4-F-phenyl)) = O=C(CCc1ccc(F)cc1)*; Propanoyl(3-(4-MeO-Ph)) = COc1ccc(CCC(=O)*)cc1; Propanoyl(3-(3-pyridyl)) = O=C(CCc1cccnc1)*; Dihydrocaffeoyl = O=C(CCc1ccc(O)c(O)c1)*; Propanoyl(3-cHex) = O=C(CCC1CCCCC1)*; X44 = Cn1cc([C@H]2C[C@H]2C(=O)*)cn1; X5 = Cn1cc([C@@H]2C[C@H]2C(=O)*)cn1; Butanoyl(4-Ph) = O=C(CCCc1ccccc1)*; X45 = CC(=O)c1ccc(OCCCC(=O)*)cc1; hArg = N=C(N)NCCCC[C@H](N)C(=O)O; X36 = CC(=O)c1ccc(OCCC(=O)*)cc1; X13 = O=C(CCN1CCS(=O)(=O)CC1)*; X34 = NC(=O)N1CCN(CCC(=O)*)CC1; Suc = O=C(CCC(=O)[*:2])[*:1]; X19 = Cc1cc(C)n(CCC(=O)*)n1; X10 = Nc1cccc(CCC(=O)*)c1; X29 = Nc1ccc(CCC(=O)*)cc1; X4 = Cc1ccc(OCCC(=O)*)cc1; Morpholide = C1CN(*)CCO1; X2 = CC(C)(C)CCCC(=O)*

Assays:
PCSK9Δhelix = target: T1, PCSK9Δhelix (Homo sapiens, UniProt Q8NBP7); test: PCSK9Δhelix/Ab20 TR-FRET binding assay; conditions: TR-FRET; Table 8E, additional compounds; read-out: PCSK9Δhelix/Ab20 IC50
T1 construct: Human PCSK9 construct M1-Q692 with an engineered TEV site (residue deletion Y166, R167); made in house; host or cells: CHO
T1 sequence (Q8NBP7 with tags, fused parts or gaps limits assumed): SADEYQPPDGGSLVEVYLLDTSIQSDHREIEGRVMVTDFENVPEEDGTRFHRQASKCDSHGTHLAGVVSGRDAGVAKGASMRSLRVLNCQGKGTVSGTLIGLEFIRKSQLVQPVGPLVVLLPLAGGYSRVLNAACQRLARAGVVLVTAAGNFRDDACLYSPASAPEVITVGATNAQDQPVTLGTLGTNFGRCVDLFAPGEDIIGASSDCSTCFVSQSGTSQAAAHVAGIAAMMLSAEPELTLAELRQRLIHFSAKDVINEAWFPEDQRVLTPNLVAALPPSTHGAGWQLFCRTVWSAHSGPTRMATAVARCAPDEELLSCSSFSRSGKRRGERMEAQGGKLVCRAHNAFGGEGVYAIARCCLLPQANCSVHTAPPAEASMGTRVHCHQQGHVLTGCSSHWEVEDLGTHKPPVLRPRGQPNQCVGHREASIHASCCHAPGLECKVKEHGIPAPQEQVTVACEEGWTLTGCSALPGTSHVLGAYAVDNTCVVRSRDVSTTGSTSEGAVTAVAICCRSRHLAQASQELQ
T1 sequence (Q8NBP7 31-152 partner limits assumed): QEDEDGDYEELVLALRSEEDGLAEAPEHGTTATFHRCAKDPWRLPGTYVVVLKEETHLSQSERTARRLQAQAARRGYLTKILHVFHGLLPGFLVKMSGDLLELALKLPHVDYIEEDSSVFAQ

PCSK9 = PCSK9 (Homo sapiens, UniProt Q8NBP7); test: PCSK9/EGF(A) TR-FRET binding assay; conditions: TR-FRET; Table 8E, additional compounds; read-out: PCSK9/EGF(A) IC50
Sequence of PCSK9 (Q8NBP7 153-692): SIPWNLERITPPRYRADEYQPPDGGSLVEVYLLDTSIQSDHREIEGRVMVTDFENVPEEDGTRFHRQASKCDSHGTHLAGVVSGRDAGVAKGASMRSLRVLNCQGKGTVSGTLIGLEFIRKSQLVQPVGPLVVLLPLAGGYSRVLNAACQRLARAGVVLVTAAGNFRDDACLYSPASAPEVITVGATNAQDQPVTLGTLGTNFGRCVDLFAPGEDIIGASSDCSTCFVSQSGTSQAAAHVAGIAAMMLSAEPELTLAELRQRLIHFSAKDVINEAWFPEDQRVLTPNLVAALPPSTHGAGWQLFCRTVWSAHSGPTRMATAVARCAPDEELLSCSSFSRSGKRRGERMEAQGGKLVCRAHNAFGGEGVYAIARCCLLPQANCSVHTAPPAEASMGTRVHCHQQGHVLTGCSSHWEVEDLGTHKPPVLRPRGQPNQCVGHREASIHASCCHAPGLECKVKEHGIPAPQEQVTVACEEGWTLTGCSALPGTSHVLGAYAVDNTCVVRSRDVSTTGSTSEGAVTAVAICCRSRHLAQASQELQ
Sequence of PCSK9 (Q8NBP7 31-152 partner limits assumed): as the sequence (Q8NBP7 31-152 partner limits assumed) above

Row | SMILES | IC50 (PCSK9Δhelix) [µM] | IC50 (PCSK9) [µM]
1 | CC[C@H](C)[C@H](NC(=O)[C@H](CCCNC(=N)N)NC(=O)[C@@H](NC(=O)[C@H](CC(C)C)NC(=O)[C@H](CC(N)=O)NC(=O)[C@H](Cc1c[nH]c2ccccc12)NC(=O)CCc1c[nH]c2ccccc12)C(C)C)C(=O)NCC(=O)N[C@@H](CC(C)C)C(=O)N[C@H](C(=O)N[C@@H](CCCNC(=N)N)C(N)=O)[C@@H](C)O [Compound 189] ({Propanoyl(3-indol-3-yl)}-WNLVRIGLTR-NH2) | 12 | 38
2 | CC[C@H](C)[C@H](NC(=O)[C@H](CCCCNC(=N)N)NC(=O)[C@@H](NC(=O)[C@H](CC(C)C)NC(=O)[C@H](CC(N)=O)NC(=O)[C@H](Cc1c[nH]c2ccccc12)NC(=O)CCc1ccc(O)c(O)c1)C(C)C)C(=O)NCC(=O)N[C@@H](CC(C)C)C(=O)N[C@@H](CC(C)C)C(=O)N[C@@H](CCCNC(=N)N)C(N)=O [Compound 224] (Dihydrocaffeoyl-WNLV[hArg]IGLLR-NH2) | 0.53 | 7
3 | CC[C@H](C)[C@H](NC(=O)[C@H](CCCCNC(=N)N)NC(=O)[C@@H](NC(=O)[C@H](CC(C)C)NC(=O)[C@H](CC(N)=O)NC(=O)[C@H](Cc1c[nH]c2ccccc12)NC(=O)CCCc1ccccc1)C(C)C)C(=O)NCC(=O)N[C@@H](CC(C)C)C(=O)N[C@@H](CC(C)C)C(=O)N[C@@H](CCCNC(=N)N)C(N)=O [Compound 212] ({Butanoyl(4-Ph)}-WNLV[hArg]IGLLR-NH2) | 1.6 | 15
4 | CC[C@H](C)[C@H](NC(=O)[C@H](CCCCNC(=N)N)NC(=O)[C@@H](NC(=O)[C@H](CC(C)C)NC(=O)[C@H](CC(N)=O)NC(=O)[C@H](Cc1c[nH]c2ccccc12)NC(=O)CCc1ccc(OC)cc1)C(C)C)C(=O)NCC(=O)N[C@@H](CC(C)C)C(=O)N[C@@H](CC(C)C)C(=O)N[C@@H](CCCNC(=N)N)C(N)=O [Compound 197] ({Propanoyl(3-(4-MeO-Ph))}-WNLV[hArg]IGLLR-NH2) | 0.09 | 0.97
5 | CC[C@H](C)[C@H](NC(=O)[C@H](CCCNC(=N)N)NC(=O)[C@@H](NC(=O)[C@H](CC(C)C)NC(=O)[C@H](CC(N)=O)NC(=O)[C@H](Cc1c[nH]c2ccccc12)NC(=O)CCN1CCS(=O)(=O)CC1)C(C)C)C(=O)NCC(=O)N[C@@H](CC(C)C)C(=O)N[C@@H](CC(C)C)C(=O)N[C@@H](CCCNC(=N)N)C(N)=O [Compound 126] (X13-WNLVRIGLLR-NH2) | 19 | ≥ 50
6 | CC[C@H](C)[C@H](NC(=O)[C@H](CCCNC(=N)N)NC(=O)[C@@H](NC(=O)[C@H](CC(C)C)NC(=O)[C@H](CC(N)=O)NC(=O)[C@H](Cc1c[nH]c2ccccc12)NC(=O)[C@@H]1C[C@H]1c1cnn(C)c1)C(C)C)C(=O)NCC(=O)N[C@@H](CC(C)C)C(=O)N[C@@H](CC(C)C)C(=O)N[C@@H](CCCNC(=N)N)C(N)=O [Compound 127] (X5-WNLVRIGLLR-NH2) | 29 | ≥ 50
7 | CC[C@H](C)[C@H](NC(=O)[C@H](CCCCNC(=N)N)NC(=O)[C@@H](NC(=O)[C@H](CC(C)C)NC(=O)[C@H](CC(N)=O)NC(=O)[C@H](Cc1c[nH]c2ccccc12)NC(=O)CCc1ccc(F)cc1)C(C)C)C(=O)NCC(=O)N[C@@H](CC(C)C)C(=O)N[C@@H](CC(C)C)C(=O)N[C@@H](CCCNC(=N)N)C(N)=O [Compound 198] ({Propanoyl(3-(4-F-phenyl))}-WNLV[hArg]IGLLR-NH2) | 0.25 | 1.7
8 | CC[C@H](C)[C@H](NC(=O)[C@H](CCCNC(=N)N)NC(=O)[C@@H](NC(=O)[C@H](CC(C)C)NC(=O)[C@H](CC(N)=O)NC(=O)[C@H](Cc1c[nH]c2ccccc12)NC(=O)CCC1CCCCC1)C(C)C)C(=O)NCC(=O)N[C@@H](CC(C)C)C(=O)N[C@@H](CC(C)C)C(=O)N[C@@H](CCCNC(=N)N)C(N)=O [Compound 151] ({Propanoyl(3-cHex)}-WNLVRIGLLR-NH2) | 2.5 | 6.9
9 | CC[C@H](C)[C@H](NC(=O)[C@H](CCCNC(=N)N)NC(=O)[C@@H](NC(=O)[C@H](CC(C)C)NC(=O)[C@H](CC(N)=O)NC(=O)[C@H](Cc1c[nH]c2ccccc12)NC(=O)CCc1cccc(N)c1)C(C)C)C(=O)NCC(=O)N[C@@H](CC(C)C)C(=O)N[C@H](C(=O)N[C@@H](CCCNC(=N)N)C(N)=O)[C@@H](C)O [Compound 164] (X10-WNLVRIGLTR-NH2) | 12 | ≥ 50
10 | CC[C@H](C)[C@H](NC(=O)[C@H](CCCNC(=N)N)NC(=O)[C@@H](NC(=O)[C@H](CC(C)C)NC(=O)[C@H](CC(N)=O)NC(=O)[C@H](Cc1c[nH]c2ccccc12)NC(=O)[C@@H]1C[C@@H]1c1cnn(C)c1)C(C)C)C(=O)NCC(=O)N[C@@H](CC(C)C)C(=O)N[C@@H](CC(C)C)C(=O)N[C@@H](CCCNC(=N)N)C(N)=O [Compound 135] (X44-WNLVRIGLLR-NH2) | 10 | ≥ 50
11 | CC[C@H](C)[C@H](NC(=O)[C@H](CCCNC(=N)N)NC(=O)[C@@H](NC(=O)[C@H](CC(C)C)NC(=O)[C@H](CC(N)=O)NC(=O)[C@H](Cc1c[nH]c2ccccc12)NC(=O)CCCC(C)(C)C)C(C)C)C(=O)NCC(=O)N[C@@H](CC(C)C)C(=O)N[C@@H](CC(C)C)C(=O)N[C@@H](CCCNC(=N)N)C(N)=O [Compound 148] (X2-WNLVRIGLLR-NH2) | 11 | 19
12 | CC[C@H](C)[C@H](NC(=O)[C@H](CCCCNC(=N)N)NC(=O)[C@@H](NC(=O)[C@H](CC(C)C)NC(=O)[C@H](CC(N)=O)NC(=O)[C@H](Cc1c[nH]c2ccccc12)NC(=O)CCC(=O)N1CCOCC1)C(C)C)C(=O)NCC(=O)N[C@@H](CC(C)C)C(=O)N[C@@H](CC(C)C)C(=O)N[C@@H](CCCNC(=N)N)C(N)=O [Compound 194] ({Morpholide-Suc}-WNLV[hArg]IGLLR-NH2) | 1.9 | ≥ 50
13 | CC[C@H](C)[C@H](NC(=O)[C@H](CCCCNC(=N)N)NC(=O)[C@@H](NC(=O)[C@H](CC(C)C)NC(=O)[C@H](CC(N)=O)NC(=O)[C@H](Cc1c[nH]c2ccccc12)NC(=O)CCc1c[nH]c2ccccc12)C(C)C)C(=O)NCC(=O)N[C@@H](CC(C)C)C(=O)N[C@@H](CC(C)C)C(=O)N[C@@H](CCCNC(=N)N)C(N)=O [Compound 201] ({Propanoyl(3-indol-3-yl)}-WNLV[hArg]IGLLR-NH2) | 1 | 3.9
14 | CC[C@H](C)[C@H](NC(=O)[C@H](CCCCNC(=N)N)NC(=O)[C@@H](NC(=O)[C@H](CC(C)C)NC(=O)[C@H](CC(N)=O)NC(=O)[C@H](Cc1c[nH]c2ccccc12)NC(=O)CCOc1ccc(C(C)=O)cc1)C(C)C)C(=O)NCC(=O)N[C@@H](CC(C)C)C(=O)N[C@@H](CC(C)C)C(=O)N[C@@H](CCCNC(=N)N)C(N)=O [Compound 205] (X36-WNLV[hArg]IGLLR-NH2) | 0.64 | 2.8
15 | CC[C@H](C)[C@H](NC(=O)[C@H](CCCNC(=N)N)NC(=O)[C@@H](NC(=O)[C@H](CC(C)C)NC(=O)[C@H](CC(N)=O)NC(=O)[C@H](Cc1c[nH]c2ccccc12)NC(=O)CCc1cccnc1)C(C)C)C(=O)NCC(=O)N[C@@H](CC(C)C)C(=O)N[C@@H](CC(C)C)C(=O)N[C@@H](CCCNC(=N)N)C(N)=O [Compound 138] ({Propanoyl(3-(3-pyridyl))}-WNLVRIGLLR-NH2) | 4.9 | 48
16 | CC[C@H](C)[C@H](NC(=O)[C@H](CCCNC(=N)N)NC(=O)[C@@H](NC(=O)[C@H](CC(C)C)NC(=O)[C@H](CC(N)=O)NC(=O)[C@H](Cc1c[nH]c2ccccc12)NC(=O)CCN1CCN(C(N)=O)CC1)C(C)C)C(=O)NCC(=O)N[C@@H](CC(C)C)C(=O)N[C@@H](CC(C)C)C(=O)N[C@@H](CCCNC(=N)N)C(N)=O [Compound 131] (X34-WNLVRIGLLR-NH2) | 6.7 | ≥ 50
17 | CC[C@H](C)[C@H](NC(=O)[C@H](CCCCNC(=N)N)NC(=O)[C@@H](NC(=O)[C@H](CC(C)C)NC(=O)[C@H](CC(N)=O)NC(=O)[C@H](Cc1c[nH]c2ccccc12)NC(=O)CCOc1ccc(C)cc1)C(C)C)C(=O)NCC(=O)N[C@@H](CC(C)C)C(=O)N[C@@H](CC(C)C)C(=O)N[C@@H](CCCNC(=N)N)C(N)=O [Compound 211] (X4-WNLV[hArg]IGLLR-NH2) | 3.8 | 14
18 | CC[C@H](C)[C@H](NC(=O)[C@H](CCCNC(=N)N)NC(=O)[C@@H](NC(=O)[C@H](CC(C)C)NC(=O)[C@H](CC(N)=O)NC(=O)[C@H](Cc1c[nH]c2ccccc12)NC(=O)CCc1cccnc1)C(C)C)C(=O)NCC(=O)N[C@@H](CC(C)C)C(=O)N[C@H](C(=O)N[C@@H](CCCNC(=N)N)C(N)=O)[C@@H](C)O [Compound 173] ({Propanoyl(3-(3-pyridyl))}-WNLVRIGLTR-NH2) | 9.8 | ≥ 50
19 | CC[C@H](C)[C@H](NC(=O)[C@H](CCCNC(=N)N)NC(=O)[C@@H](NC(=O)[C@H](CC(C)C)NC(=O)[C@H](CC(N)=O)NC(=O)[C@H](Cc1c[nH]c2ccccc12)NC(=O)CCCOc1ccc(C(C)=O)cc1)C(C)C)C(=O)NCC(=O)N[C@@H](CC(C)C)C(=O)N[C@H](C(=O)N[C@@H](CCCNC(=N)N)C(N)=O)[C@@H](C)O [Compound 183] (X45-WNLVRIGLTR-NH2) | 2.5 | 18
20 | CC[C@H](C)[C@H](NC(=O)[C@H](CCCCNC(=N)N)NC(=O)[C@@H](NC(=O)[C@H](CC(C)C)NC(=O)[C@H](CC(N)=O)NC(=O)[C@H](Cc1c[nH]c2ccccc12)NC(=O)CCc1ccc(N)cc1)C(C)C)C(=O)NCC(=O)N[C@@H](CC(C)C)C(=O)N[C@@H](CC(C)C)C(=O)N[C@@H](CCCNC(=N)N)C(N)=O [Compound 218] (X29-WNLV[hArg]IGLLR-NH2) | 0.26 | 5
21 | CC[C@H](C)[C@H](NC(=O)[C@H](CCCNC(=N)N)NC(=O)[C@@H](NC(=O)[C@H](CC(C)C)NC(=O)[C@H](CC(N)=O)NC(=O)[C@H](Cc1c[nH]c2ccccc12)NC(=O)CCn1nc(C)cc1C)C(C)C)C(=O)NCC(=O)N[C@@H](CC(C)C)C(=O)N[C@@H](CC(C)C)C(=O)N[C@@H](CCCNC(=N)N)C(N)=O [Compound 136] (X19-WNLVRIGLLR-NH2) | 9 | ≥ 50
